Patent publication US12503452B2 (Curza Global, LLC, priority 2019, dated 2025)
Read-outs that look alike come from different tables or passages of the source.

What was measured:
E. coli (Ec) = test: Broth microdilution minimum inhibitory concentration (MIC); format: cell-based; conditions: Escherichia coli, E. coli, read-out: E. coli + bicarb MIC
How it was run: (§1)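 Two-fold compound series, 8 points in triplicate; medium CAMHB ± NaHCO3 (6.25 or 25 mM final) or ± 0–50% heat-inactivated human serum; inoculum 5×10^4 CFU/well; growth-method 0.5 McFarland suspensions; modified CLSI M07-A9.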

A. baumannii (Ab) = test: as above; format: cell-based; conditions: Acinetobacter baumannii, A. baumannii, read-out: Ab + bicarb MIC
How it was run: as §1

S. aureus (Sa) = test: as above; format: cell-based; conditions: Staphylococcus aureus, S. aureus, read-out: Sa + bicarb MIC
How it was run: as §1

E. faecalis (Ef) = test: as above; format: cell-based; conditions: Enterococcus faecalis, E. faecalis, read-out: Ef + bicarb MIC
How it was run: as §1

P. aeruginosa (Pa) = test: as above; format: cell-based; conditions: Pseudomonas aeruginosa, P. aeruginosa, read-out: Pa MIC + bicarb
How it was run: as §1

[1] = target: Rabbit Reticulocyte Lysate (eukaryotic protein synthesis); test: Rabbit reticulocyte lysate luciferase assay (inhibition of eukaryotic protein synthesis); format: biochemical; conditions: class by IC50 or % inhibition @ 1 μM, read-out: Rabbit reticulocyte IC50 (μM/% inhib.)
How it was run: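 Compounds were tested in 8-point 2-fold dilution series for blocking luciferase synthesis in nuclease-treated rabbit reticulocyte lysate (30° C., 90 minutes). Luminescence read-out, corrected by no-RNA background, was expressed as % inhibition against water-only reactions.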

[2] = test system: E. coli S30 extract (bacterial protein synthesis); test: E. coli S30 extract coupled transcription-translation luciferase assay (inhibition of bacterial protein synthesis); format: biochemical; conditions: class by IC50 or % inhibition @ 1 μM, read-out: S30 IC50 (μM/% inhib.)
How it was run: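 Luminescent read-out of luciferase made from pBESTluc DNA by E. coli S30 extract after 1 h at 37 °C with compound in an 8-point 2-fold series. Background came from no-DNA reactions. Percent inhibition was calculated against water-only controls.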

[3] = growth medium supplemented with sodium bicarbonate
[4] = growth medium with sodium bicarbonate

| SMILES | MIC (E. coli (Ec); [3]) [mg/L] | MIC (A. baumannii (Ab); [3]) [mg/L] | MIC (S. aureus (Sa); [3]) [mg/L] | MIC (E. faecalis (Ef); [3]) [mg/L] | MIC (P. aeruginosa (Pa); [3]) [mg/L] | IC50 [1] [µM] | IC50 [2] [µM] | MIC (E. coli (Ec); [4]) [mg/L] | MIC (A. baumannii (Ab); [4]) [mg/L] | MIC (S. aureus (Sa); [4]) [mg/L] | MIC (E. faecalis (Ef); [4]) [mg/L] | MIC (P. aeruginosa (Pa); [4]) [mg/L] |
| --- | --- | --- | --- | --- | --- | --- | --- | --- | --- | --- | --- | --- |
| CC(C)(N)C(=O)N1CCN(C(=O)Nc2ccn(-c3cccc(CCN4CC[C@H](CN)C4)c3)c(=O)n2)CC1 (stereo in doubt) [Compound 24] | 8 to 32 | > 32 | 8 to 32 | > 32 | > 32 | > 1 | < 0.5 |  |  |  |  |  |
| C[C@@H]1CCN(CCc2ccc(-n3ccc(NC(=O)N4CCN(C(=O)[C@](C)(N)CO)CC4)nc3=O)cc2)CC[C@H]1N (stereo in doubt) [Compound 28] | < 8 | > 32 | < 8 | < 8 | > 32 | > 1 | < 0.5 |  |  |  |  |  |
| CC(C)(N)C(=O)N1CCN(C(=O)Nc2ccn(-c3ccc(CCN[C@H]4CC[C@@H](CN)C4)cc3)c(=O)n2)CC1 (stereo in doubt) [Compound 177] |  |  |  |  |  | > 1 | > 1 | < 8 | > 32 | < 8 | > 32 | > 32 |
| CN(CCc1ccc(-n2ccc(NC(=O)N3CCN(C(=O)C(C)(C)N)CC3)nc2=O)cc1)[C@H]1CC[C@@H](CN)C1 (stereo in doubt) [Compound 178] |  |  |  |  |  | > 1 | > 1 | < 8 | > 32 | 8 to 32 | > 32 | > 32 |
| CC[C@@H]1CN(Cc2ccc(-n3ccc(NC(=O)N4CCN(C(=O)C(C)(C)N)CC4)nc3=O)cc2)CC[C@H]1N (stereo in doubt) [Compound 213] |  |  |  |  |  | > 1 | < 0.5 | < 8 | > 32 | < 8 | < 8 | > 32 |
| CC(C)(N)C(=O)N1CCN(C(=O)Nc2ccn(-c3ccc(CCN4CCCC(N)CC4)cc3)c(=O)n2)CC1 (centres unmarked) [Compound 21] | < 8 | > 32 | < 8 | < 8 | 8 to 32 | > 1 | < 0.5 |  |  |  |  |  |
| CCC(N)C1CCCN(CCc2ccc(-n3ccc(NC(=O)N4CCN(C(=O)C(C)(C)N)CC4)nc3=O)cc2)C1 (centres unmarked) [Compound 23] | < 8 | > 32 | 8 to 32 | > 32 | > 32 | > 1 | > 1 |  |  |  |  |  |
| CC(C)(N)C(=O)N1CCN(C(=O)Nc2ccn(-c3ccc(CCN4CCC[C@@H](CN)C4)cc3)c(=O)n2)CC1 [Compound 25] | < 8 | > 32 | < 8 | > 32 | > 32 | > 1 | 0.5 to 1 |  |  |  |  |  |
| CC(C)(N)C(=O)N1CCN(C(=O)Nc2ccn(-c3ccc(CCN4CCC[C@H](CN)C4)cc3)c(=O)n2)CC1 [Compound 26] | < 8 | > 32 | < 8 | 8 to 32 | > 32 | > 1 | < 0.5 |  |  |  |  |  |
| C[C@@H]1CCN(CCc2ccc(-n3ccc(NC(=O)N4CCN(C(=O)C(C)(C)N)CC4)nc3=O)cc2)CC[C@H]1N [Compound 27] | < 8 | > 32 | < 8 | < 8 | 8 to 32 | > 1 | < 0.5 |  |  |  |  |  |
| CC(C)(N)C(=O)N1CCN(C(=O)Nc2ccn(-c3ccc(CCN4CCCC(NC5CC5)CC4)cc3)c(=O)n2)CC1 (centres unmarked) [Compound 29] | < 8 | > 32 | 8 to 32 | > 32 | > 32 | > 1 | > 1 |  |  |  |  |  |
| CC(C)(N)C(=O)N1CCN(C(=O)Nc2ccn(-c3ccc(CCNC4CCCNCC4)cc3)c(=O)n2)CC1 (centres unmarked) [Compound 30] | < 8 | > 32 | < 8 | > 32 | > 32 | > 1 | < 0.5 |  |  |  |  |  |
| CC(C)(N)C(=O)N1CCN(C(=O)Nc2ccn(-c3ccc(CCCN4CCCC(N)CC4)cc3)c(=O)n2)CC1 (centres unmarked) [Compound 31] | < 8 | > 32 | < 8 | 8 to 32 | > 32 | > 1 | < 0.5 |  |  |  |  |  |
| CC(C)(N)C(=O)N1CCN(C(=O)Nc2ccn(-c3ccc(CCCN4CC(N)C4)cc3)c(=O)n2)CC1 [Compound 32] | 8 to 32 | > 32 | 8 to 32 | > 32 | > 32 | > 1 | > 1 |  |  |  |  |  |
